In ChEMBL document CHEMBL1142800, “Estrogen receptor ligands. Part 13: Dihydrobenzoxathiin SERAMs with an optimized antagonist side chain” (Bioorg Med Chem Lett, 2005) one finds IC50 data, which are given here for three compounds.

In this assay the target is Estrogen receptor beta (Homo sapiens, UniProt Q92731). The assay can be described thus: Inhibition of human estrogen receptor 2 using tritiated estradiol incubated for 3 hr.
Sequence of Estrogen receptor beta (Q92731 whole entry): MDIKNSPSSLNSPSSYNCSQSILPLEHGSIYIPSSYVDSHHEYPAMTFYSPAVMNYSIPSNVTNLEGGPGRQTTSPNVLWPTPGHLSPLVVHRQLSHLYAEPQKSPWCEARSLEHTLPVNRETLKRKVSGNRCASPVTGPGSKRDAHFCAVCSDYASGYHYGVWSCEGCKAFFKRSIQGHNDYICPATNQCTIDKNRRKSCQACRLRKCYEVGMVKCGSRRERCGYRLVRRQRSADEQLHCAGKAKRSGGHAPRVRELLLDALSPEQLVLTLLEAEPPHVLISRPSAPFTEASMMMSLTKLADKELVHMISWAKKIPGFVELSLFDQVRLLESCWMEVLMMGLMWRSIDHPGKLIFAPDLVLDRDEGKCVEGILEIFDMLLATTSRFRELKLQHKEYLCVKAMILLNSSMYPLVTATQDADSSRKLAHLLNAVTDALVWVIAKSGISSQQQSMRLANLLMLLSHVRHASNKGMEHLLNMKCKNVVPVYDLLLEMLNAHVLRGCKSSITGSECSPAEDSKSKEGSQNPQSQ
By IC50 is commonly meant the concentration at which inhibition is half-maximal. High values mean weaker potency in that assay, low ones greater potency in that assay. In turn, `C[C@@H]1CCN([C@@H](C)COc2ccc([C@@H]3Oc4ccc(O)c(F)c4S[C@@H]3c3cccc(O)c3)cc2)C1` showed an IC50 of 9.1 nM.

In turn, `C[C@@H]1CCN([C@@H](C)COc2ccc([C@@H]3Oc4ccc(O)cc4S[C@@H]3c3cccc(O)c3)cc2)C1` registered an IC50 of 69 nM.

Turning to `C[C@@H]1CCN([C@@H](C)COc2ccc([C@@H]3Oc4ccc(O)c(F)c4S[C@@H]3c3ccc(O)cc3)cc2)C1`, half-maximal inhibition (IC50) required 5.3 nM.
